Legend:
lat-1(ok1465) nematodes = test: Lethality rescue assay in lat-1 mutant nematodes; type: in vivo; conditions: L4 larvae and subsequently embryos incubated; forskolin 80 μM, IBMX 10 mM, 8-Br-cAMP 0.25 mM
Excerpt: Fig 2 Division plane defects in lat-1 mutant embryos are rescued by elevation of intracellular cAMP via a Gs protein/adenylyl cyclase pathway. […] In wild-type embryos treated with the RNAi control vector L4440 ABal divides in an anterior-posterior direction (A) whereas in treated lat-1 mutants the division plane is almost perpendicular to MS (B). gsa-1 RNAi by feeding over two generations leads to a turning of the F2 ABal division plane in a direction similar to that in lat-1 mutants (C). F2 lat-1; gsa-1(RNAi) embryos show a similar ABal division plane to lat-1 mutants (D). (E) Cell division plane angles of ABal relative to MS after knockdown of gsa-1. […] The vector L4440 served as negative control. Data are shown as means ± SD. * p < 0.05; *** p < 0.001; n ≥ 11. (F) cAMP levels are reduced in lat-1 embryos compared to a control wild-type population. cAMP levels were measured after lysis (15 μg protein) by cAMP accumulation assay. Assays were performed in three independent experiments, data are given as means ± SD. ** p < 0.01. (G) Rescue of developmental lethality in lat-1 nematodes treated with compounds promoting cAMP accumulation: forskolin (80 μM), IBMX (10 mM) and 8-Br-cAMP (0.25 mM). Mothers and subsequently offspring of wild-type and lat-1 individuals were incubated and individuals reaching adulthood were scored (n = 410). As controls, nematodes were incubated in solvent without drug (mock). Data are shown as means ± SD. * p < 0.05; ** p < 0.01; *** p < 0.001. (H) Forskolin increases cAMP levels in C. elegans embryos and adults. lat-1 mutants and subsequently embryos were incubated with 80 μM forskolin. […] As controls, nematodes were treated with 0.8% DMSO lacking forskolin (mock). Basal cAMP levels of mock control are: 0.70 ± 0.14 nM (wild-type embryos); 0.37 ± 0.19 nM (lat-1 embryos); 1.9 ± 0.7 nM (wild-type adults); 2.3 ± 0.8 nM (lat-1 adults). Assays were performed in three independent experiments, data are given as means ± SD. * p < 0.05; ** p < 0.01; *** p < 0.001. (I-L) Relative positions of ABala, ABalp, and MS in an AB^4 embryo. Schematic representation (top) and DIC microscopy (bottom), scale bars = 10 μm. In wild-type embryos (I) and embryos incubated in 80 μM forskolin for 120 minutes (K) ABal divides in an anterior-posterior direction with only ABalp forming an interface with MS. In lat-1 mutants the division plane is skewed resulting in ABala and ABalp contacting MS (J). lat-1 embryos treated with 80 μM forskolin for 120 minutes display wild-type division and cell interfaces (L). (M) Arrangement of blastomeres in the 12-cell stage embryo. […] The right-hand side is two views of the mean positions of the blastomeres. The spheres are enlarged to convey an impression of the contacts. Forskolin turns the ABal spindle in the mutant in a more anterior direction. (N) Cell division plane angles of ABal relative to MS of untreated wild-type/lat-1 controls and wild-type/lat-1 embryos after incubation of mothers and subsequently embryos for 48 hours in 80 μM forskolin. Upon forskolin treatment, mutant embryos display a wild-type division angle. As controls, nematodes were treated with 0.8% DMSO lacking forskolin (mock). Data are shown as average angles ± SD, *** p < 0.001; n ≥ 12. (O) Forskolin reduces the contact length of ABala to MS. Ratio of relative contact lengths of ABala to MS and ABalp to MS cells lat-1 embryos untreated (control, n = 10) and after incubation of mothers and subsequently embryos for 48 hours in 80 μM forskolin (n = 11). […] Data were calculated from pixel analyses utilizing DIC images and are shown as means ± SD, ** p < 0.01.
All compounds were obtained from Sigma Aldrich. Forskolin was dissolved in DMSO to 10 mM, 3-isobutyl-1-methylxanthine (IBMX) in Dent´s buffer to 10 mM, 8-bromoadenosine 3′,5′-cyclic monophosphate (8-Br-cAMP) in 1 N ammonium hydroxide to 250 mM and 2',5'-dideoxyadenosine (ddA) was diluted in DMSO to 100 mM prior to final dilution in Dent´s buffer. […]

LAT-1 = test: Peptide-stimulated cAMP accumulation assay, lat-1-transfected COS-7 cells; type: cell-based, C. elegans; conditions: 1 mM peptide; for agonistic activity at LAT-1 in vitro (cAMP levels), in words: lat-1-transfected COS-7 cells, cAMP accumulation assay
Excerpt: Fig 3 An agonistic sequence C-terminal of the GPS cleavage site activates LAT-1 in vitro. (A) Evolutionary conservation of the putative agonistic region C-terminal of the GPCR proteolytic site (GPS) cleavage site in different latrophilin homologs. The GPS is part of the GPCR-autoproteolysis inducing (GAIN) domain, a characteristic feature of most aGPCRs which is located N-terminal of the first transmembrane domain (TM1). Sequences were retrieved from NCBI/GenBank and aligned utilizing Jalview 2 [36]. (B, F) Peptide-stimulated cAMP response of LAT-1 (B) and rat LPHN1 (F). COS-7 cells transfected with 0.2 μg empty control vector (pcDps) or plasmid encoding the latrophilin homolog, respectively, were stimulated with 1 mM peptide and cAMP levels were measured by cAMP accumulation assay. A mutated peptide served as negative control (CMP12/RMP13). […] Basal cAMP levels (empty vector, no peptide) are 5.3 ± 1.3 nM. Data are given as means ± SD of five independent experiments, each performed in triplicate. * p < 0.05; ** p < 0.01. (C) LPHN1 is expressed in COS-7 cells. Cells were transfected with 500 ng/well of empty vector (pcDps) or plasmid encoding either rat LPHN1, human P2Y12, or human V2R. […] Expression of the human vasopressin type 2 receptor V2R is shown as a comparison. The non-specific OD value (empty vector) was 0.06 ± 0.03 (set 0%) and the OD value of P2Y12 was 1.28 ± 0.12 (set 100%). Data are given as means ± SD of at least three independent experiments. *** p < 0.001. […] To analyze functional Gi coupling, the chimeric Gαqi4 protein was applied to reroute a potential Gi-protein pathway to the […]. For each assay, 1.5 μg/well of plasmid encoding LPHN1 was transfected (for Gi-protein coupling, co-transfection with 100 ng of chimeric Gαqi4 protein was performed). No activation of any of the signaling pathway was observed. Basal IP levels are: 220 ± 34 CPM/well (empty vector); 234 ± 39 CPM/well (empty vector + Gαqi4). Data are given as means ± SD of three independent experiments, each performed in triplicate. n.s. not significant. (E) LPHN1 couples to Gαs. COS-7 cells were transfected with increasing amounts of empty control vector (pcDps) or plasmid encoding either rat LPHN1, human V2R or human P2Y12, and cAMP levels were measured after 48 hours. cAMP concentrations are shown as fold change over empty control vector, basal cAMP levels: 6.2 ± 2.3 nM (200 ng); 6.1 ± 2.5 nM (300 ng); 5.1 ± 2.6 nM (400 ng); 6.1 ± 4.5 nM (500 ng). The Gs-protein coupling V2R served as positive and the predominantly Gi-protein coupling P2Y12 as negative control. Data are given as means ± SD of three independent experiments, each performed in triplicate. *** p < 0.001.
For functional assays, COS-7 cells were transiently transfected. To determine total as well as cell surface expression of receptors carrying N-terminal HA and C-terminal FLAG tags, indirect cellular enzyme-linked immunosorbent assays (ELISA) were employed. cAMP concentrations were measured using the ALPHAScreen cAMP assay kit (PerkinElmer Life Sciences) according to the manufacturer's protocol. IP formation was determined as previously described. Assay data was analyzed with GraphPad Prism version 5.0 (GraphPad Software). Statistics were performed using a two-way ANOVA in combination with Bonferroni as post-hoc test. For details see Supporting Experimental Procedures.
COS-7 cells were grown in Dulbecco's Modified Eagle Medium (DMEM) supplemented with 10% fetal bovine serum, 100 U/ml penicillin and 100 μg/ml streptomycin at 37°C and 5% CO2 in a humidified atmosphere. […]

[1] = system: lat-1 mutant nematodes expressing lat-1 with a lat-2 GPS; test: Peptide-mediated rescue of lethality in lat-1 mutants expressing lat-1 with a lat-2 GPS; type: in vivo, C. elegans; conditions: mothers and subsequently offspring soaked in 0.1 mM peptide, n ≥ 350
Protocol: Fig 4 The agonistic sequence of LAT-1 triggers receptor function in vivo. (A) Domain architecture of LAT-1 with an exchange of the GPS for the LAT-2 GPS. (B) Peptide-mediated rescue of lethality in lat-1 mutant nematodes expressing lat-1 with a lat-2 GPS. Mothers and subsequently offspring were soaked in 0.1 mM of peptide and individuals reaching adulthood were scored (n ≥ 350). […] Negative controls: mutated peptide CMP12 and a peptide derived from rat LPHN1 (RP13). Data are shown as means ± SD, **p<0.01; ***p<0.001. (C) Transgenically expressed lat-1 ^T530A/F532A::gfp exclusively rescues fertility defects of lat-1 mutants. Nematodes expressing lat-1 ^T530A/F532A::gfp in a lat-1 mutant background display lethality but no fertility defects compared to a lat-1::gfp transgenic control. (D) Expression and protein localization of lat-1::gfp (top) is indistinguishable from lat-1 ^T530A/F532A::gfp (bottom). Arrows indicate expression.
All compounds were obtained from Sigma Aldrich. Forskolin was dissolved in DMSO to 10 mM, 3-isobutyl-1-methylxanthine (IBMX) in Dent´s buffer to 10 mM, 8-bromoadenosine 3′,5′-cyclic monophosphate (8-Br-cAMP) in 1 N ammonium hydroxide to 250 mM and 2',5'-dideoxyadenosine (ddA) was diluted in DMSO to 100 mM prior to final dilution in Dent´s buffer. Peptides were synthesized (see Supporting Experimental Procedures) and dissolved in DMSO to 100 mM prior to final dilution in M9. Worms were incubated in 80 μM forskolin, 10 mM IBMX, 0.25 mM 8-Br-cAMP, 1 mM ddA or 0.1 mM peptide solution, respectively, containing E. coli OP50.
The lethality rescue assay was conducted as previously described. Fifty L4 hermaphrodites were transferred into wells of a 72-well flat-bottom Terasaki plates (Greiner Bio-One) containing OP50 and allowed to lay eggs for 24 hours at 22°C. Five to ten eggs were transferred into fresh wells with corresponding solutions and incubated at 22°C. The number of dead/surviving embryos was scored 24 hours later, the number of adult animals 48 hours later on an inverted microscope. Data were examined with an unpaired two-tailed t test for each genotype and condition.

Molecule | effect on embryonic lethality of lat-1 worms, in words (lat-1(ok1465) nematodes) | agonistic activity at LAT-1 in vitro (cAMP levels), in words (LAT-1) | rescue of tissue polarity phenotype / activity in vivo, in words [1] | increase of cAMP concentration above basal levels (LAT-1; lat-1-transfected COS-7 cells (0.2 μg plasmid), ALPHAScreen cAMP assay, means of five independent experiments, each in triplicate) [fold] | rescue of lethality (individuals reaching adulthood) ([1]; means ± SD, untreated controls 26 ± 7%) [%]
Nc1ncnc2c1nc(Br)n2[C@@H]1O[C@@H]2COP(=O)(O)O[C@H]2[C@H]1O [8-Br-cAMP, 8-bromoadenosine 3′,5′-cyclic monophosphate] | amelioration of embryonic lethality |  |  |  | 
CC(C)Cn1c(=O)n(C)c(=O)c2[nH]cnc21 [IBMX, 3-isobutyl-1-methylxanthine] | amelioration of embryonic lethality |  |  |  | 
CMP12: CP12-derived peptide with positions +1 (T530) and +3 (F532) mutated to alanine (AHAAVLMDVRGH) |  | did not display any activity | not display any activity in vivo |  | 
CP9: peptide comprising the LAT-1 sequence C-terminal of the GPS cleavage site (THFAVLMDV) |  | no agonistic activity in vitro | not display any activity in vivo |  | 
CP10: peptide comprising the LAT-1 sequence C-terminal of the GPS cleavage site (THFAVLMDVR) |  | no agonistic activity in vitro | not display any activity in vivo |  | 
CP12: peptide of 12 amino acids comprising the LAT-1 sequence C-terminal of the GPS cleavage site (THFAVLMDVRGH) |  | increased cAMP levels | efficiently rescued | 1.6 | 
CP13: peptide of 13 amino acids comprising the LAT-1 sequence C-terminal of the GPS cleavage site (THFAVLMDVRGHD) |  | increased cAMP levels | efficiently rescued |  | 46 ± 12
CP14: peptide comprising the LAT-1 sequence C-terminal of the GPS cleavage site (THFAVLMDVRGHDL) |  | no agonistic activity in vitro | not display any activity in vivo |  | 

Source: paper PMC4624771, “Oriented Cell Division in the C. elegans Embryo Is Coordinated by G-Protein Signaling Dependent on the Adhesion GPCR LAT-1” (PLoS Genetics, 2015)
